The values below are quoted from earlier work in US20170143622A1, “STABLE LIQUID READY-TO-USE INJECTABLE FORMULATION OF BORTEZOMIB” (DR. REDDY'S LABORATORIES LIMITED, priority 2014, published 2017).

Like-named read-outs stand apart in the source and are kept apart here.

The conditions of data set [1]: ethanol composition, 40° C. and 75% relative humidity, 1 month.
For data set [2] the following is noted: polyethylene glycol (PEG).
For data set [3] the following is noted: 25° C.

For `CC(C)C[C@H](NC(=O)[C@H](Cc1ccccc1)NC(=O)c1cnccn1)B(O)O` [bortezomib, [(1R)-3-methyl-1-[[(2S)-1-oxo-3-phenyl-2[(pyrazinylcarbonyl)amino]propyl]amino]butyl]boronic acid], the “Bortezomib degraded to” value in data set [1] is listed as 76%. Also, the “Solubility in PEG” value in data set [2] is given as “insolubility”. Further, the Degradation is listed as 20% in data set [3] (ethanol: normal saline solution (2:98, pH 2.8), bortezomib 0.5 mg/ml, 1 month); no more than 20% in data set [3] (polyethylene glycol (PEG) 300: Ethanol:Water (40:10:50), 24 hours); 20% in data set [3] (propylene glycol (PG): Ethanol:Water (50:10:40), 8 months).
